# Measurements as given in ChEMBL document CHEMBL1147339, “Combination effects of antifungal nagilactones against Candida albicans and two other fungi with phenylpropanoids” (1993).
# Activity calls are given as the source filed them. No cut-off for these calls is given here.
# System: Saccharomyces cerevisiae
# Experiment: Antifungal activity against Saccharomyces cerevisiae ATCC 7754 at 800 ug/mL after 2 days by broth dilution method
# Assay type: functional
# Conditions: ATCC 7754, 48 h
row,SMILES,MIC
1,CC(C)[C@H]1OC(=O)C=C2C1=C[C@H]1OC(=O)[C@@]3(C)C[C@H](O)C[C@@]2(C)[C@@H]13,800 µg/mL

# System: Candida albicans
# Experiment: Antifungal activity against Candida albicans ATCC 18804 at 800 ug/mL after 2 days by broth dilution method
# Assay type: functional, organism-based
# Conditions: not given
row,SMILES,Activity
1,CC(C)c1oc(=O)cc2c1[C@@H](O)[C@H]1OC(=O)[C@@]3(C)[C@@H](O)[C@H]4O[C@H]4[C@@]2(C)[C@@H]13 [NAGILACTONE C],inactive

# System: Malassezia furfur
# Experiment: Antifungal activity against Pityrosporum ovale ATCC 14521 at 800 ug/mL after 3 days by broth dilution method
# Assay type: functional, organism-based
# Conditions: not given
row,SMILES,Activity
1,CC(C)c1oc(=O)cc2c1[C@@H](O)[C@H]1OC(=O)[C@@]3(C)[C@@H](O)[C@H]4O[C@H]4[C@@]2(C)[C@@H]13 [NAGILACTONE C],inactive

# System: Saccharomyces cerevisiae
# Experiment: Antifungal activity against Saccharomyces cerevisiae ATCC 7754 after 2 days by broth dilution method
# Assay type: functional
# Conditions: ATCC 7754, 48 h
row,SMILES,MIC
1,CC(C)c1oc(=O)cc2c1[C@@H](O)[C@H]1OC(=O)[C@@]3(C)[C@@H](O)[C@H]4O[C@H]4[C@@]2(C)[C@@H]13 [NAGILACTONE C],> 1600 µg/mL
2,C/C=C\c1ccc(O)c(OC)c1 [ISOEUGENOL],400 µg/mL
3,C=CCc1ccc2c(c1)OCO2 [SAFROLE],200 µg/mL
4,C/C=C/c1ccc(OC)c(OC)c1 [METHYLISOEUGENOL],400 µg/mL
5,CC(C)[C@H]1OC(=O)C=C2C13O[C@@H]3[C@H]1OC(=O)[C@@]3(C)[C@@H](O)CC[C@@]2(C)[C@@H]13 (some centres not stated) [NAGILACTONE E],100 µg/mL
6,O=C(O)c1ccc(O)cc1 [PARABEN],200 µg/mL
7,C/C=C/c1ccc(OC)cc1 [ANETHOLE],200 µg/mL
8,C/C=C/c1cc(OC)c(OC)cc1OC [TRANS-ASARONE],800 µg/mL
9,C/C=C/c1ccccc1,400 µg/mL
10,C=CCc1ccc(OC)c(OC)c1 [METHYLEUGENOL],800 µg/mL
11,COc1ccc(/C=C/C(=O)O)cc1 [4-METHOXYCINNAMIC ACID],100 µg/mL
12,C/C=C/c1ccc2c(c1)OCO2 [ISOSAFROLE],200 µg/mL
13,C=CCc1ccccc1 [ALLYLBENZENE],400 µg/mL
14,COc1ccc(O)c(C(C)(C)C)c1.COc1ccc(O)cc1C(C)(C)C [BUTYLATED HYDROXYANISOLE],200 µg/mL
15,C=CCc1ccc(O)c(OC)c1 [EUGENOL],800 µg/mL
16,CC(C)[C@H]1OC(=O)C=C2C1=C[C@H]1OC(=O)[C@@]3(C)C[C@H](O)C[C@@]2(C)[C@@H]13,800 µg/mL

# System: Candida albicans
# Experiment: Antifungal activity against Candida albicans ATCC 18804 after 2 days by broth dilution method
# Assay type: functional
# Conditions: ATCC 18804, 48 h
row,SMILES,MIC
1,C/C=C\c1ccc(O)c(OC)c1 [ISOEUGENOL],400 µg/mL
2,C=CCc1ccc2c(c1)OCO2 [SAFROLE],200 µg/mL
3,C/C=C/c1ccc(OC)c(OC)c1 [METHYLISOEUGENOL],400 µg/mL
4,CC(C)[C@H]1OC(=O)C=C2C13O[C@@H]3[C@H]1OC(=O)[C@@]3(C)[C@@H](O)CC[C@@]2(C)[C@@H]13 (some centres not stated) [NAGILACTONE E],800 µg/mL
5,C/C=C/c1ccc(OC)cc1 [ANETHOLE],200 µg/mL
6,C/C=C/c1cc(OC)c(OC)cc1OC [TRANS-ASARONE],800 µg/mL
7,C/C=C/c1ccccc1,400 µg/mL
8,C=CCc1ccc(OC)c(OC)c1 [METHYLEUGENOL],800 µg/mL
9,COc1ccc(/C=C/C(=O)O)cc1 [4-METHOXYCINNAMIC ACID],200 µg/mL
10,C/C=C/c1ccc2c(c1)OCO2 [ISOSAFROLE],100 µg/mL
11,C=CCc1ccccc1 [ALLYLBENZENE],400 µg/mL
12,C=CCc1ccc(O)c(OC)c1 [EUGENOL],800 µg/mL

# System: Malassezia furfur
# Experiment: Antifungal activity against Pityrosporum ovale ATCC 14521 after 3 days by broth dilution method
# Assay type: functional
# Conditions: ATCC 14521, 72 h
row,SMILES,MIC
1,CC(C)c1oc(=O)cc2c1[C@@H](O)[C@H]1OC(=O)[C@@]3(C)[C@@H](O)[C@H]4O[C@H]4[C@@]2(C)[C@@H]13 [NAGILACTONE C],> 1600 µg/mL
2,C/C=C\c1ccc(O)c(OC)c1 [ISOEUGENOL],200 µg/mL
3,C=CCc1ccc2c(c1)OCO2 [SAFROLE],200 µg/mL
4,C/C=C/c1ccc(OC)c(OC)c1 [METHYLISOEUGENOL],200 µg/mL
5,CC(C)[C@H]1OC(=O)C=C2C13O[C@@H]3[C@H]1OC(=O)[C@@]3(C)[C@@H](O)CC[C@@]2(C)[C@@H]13 (some centres not stated) [NAGILACTONE E],50 µg/mL
6,O=C(O)c1ccc(O)cc1 [PARABEN],100 µg/mL
7,C/C=C/c1ccc(OC)cc1 [ANETHOLE],200 µg/mL
8,C/C=C/c1cc(OC)c(OC)cc1OC [TRANS-ASARONE],200 µg/mL
9,C/C=C/c1ccccc1,> 800 µg/mL
10,C=CCc1ccc(OC)c(OC)c1 [METHYLEUGENOL],200 µg/mL
11,COc1ccc(/C=C/C(=O)O)cc1 [4-METHOXYCINNAMIC ACID],> 800 µg/mL
12,C/C=C/c1ccc2c(c1)OCO2 [ISOSAFROLE],100 µg/mL
13,C=CCc1ccccc1 [ALLYLBENZENE],> 800 µg/mL
14,COc1ccc(O)c(C(C)(C)C)c1.COc1ccc(O)cc1C(C)(C)C [BUTYLATED HYDROXYANISOLE],200 µg/mL
15,C=CCc1ccc(O)c(OC)c1 [EUGENOL],200 µg/mL

# System: Bacillus subtilis
# Experiment: Antimicrobial activity against Bacillus subtilis ATCC 9372 up to 800 ug/mL after 2 days by broth dilution method
# Assay type: functional
# Conditions: ATCC 9372, 48 h
row,SMILES,MIC
1,CC(C)[C@H]1OC(=O)C=C2C13O[C@@H]3[C@H]1OC(=O)[C@@]3(C)[C@@H](O)CC[C@@]2(C)[C@@H]13 (some centres not stated) [NAGILACTONE E],50 µg/mL

# System: Corynebacterium ammoniagenes
# Experiment: Antimicrobial activity against Brevibacterium ammoniagenes ATCC 6872 up to 800 ug/mL after 2 days by broth dilution method
# Assay type: functional, organism-based
# Conditions: not given
row,SMILES,Activity
1,CC(C)c1oc(=O)cc2c1[C@@H](O)[C@H]1OC(=O)[C@@]3(C)[C@@H](O)[C@H]4O[C@H]4[C@@]2(C)[C@@H]13 [NAGILACTONE C],inactive
2,CC(C)[C@H]1OC(=O)C=C2C13O[C@@H]3[C@H]1OC(=O)[C@@]3(C)[C@@H](O)CC[C@@]2(C)[C@@H]13 (some centres not stated) [NAGILACTONE E],inactive
3,CC(C)[C@H]1OC(=O)C=C2C1=C[C@H]1OC(=O)[C@@]3(C)C[C@H](O)C[C@@]2(C)[C@@H]13,inactive

# System: Staphylococcus aureus
# Experiment: Antimicrobial activity against Staphylococcus aureus ATCC 12598 up to 800 ug/mL after 2 days by broth dilution method
# Assay type: functional, organism-based
# Conditions: not given
row,SMILES,Activity
1,CC(C)c1oc(=O)cc2c1[C@@H](O)[C@H]1OC(=O)[C@@]3(C)[C@@H](O)[C@H]4O[C@H]4[C@@]2(C)[C@@H]13 [NAGILACTONE C],inactive
2,CC(C)[C@H]1OC(=O)C=C2C13O[C@@H]3[C@H]1OC(=O)[C@@]3(C)[C@@H](O)CC[C@@]2(C)[C@@H]13 (some centres not stated) [NAGILACTONE E],inactive
3,CC(C)[C@H]1OC(=O)C=C2C1=C[C@H]1OC(=O)[C@@]3(C)C[C@H](O)C[C@@]2(C)[C@@H]13,inactive

# System: Streptococcus mutans
# Experiment: Antimicrobial activity against Streptococcus mutans ATCC 25175 up to 800 ug/mL after 2 days by broth dilution method
# Assay type: functional, organism-based
# Conditions: not given
row,SMILES,Activity
1,CC(C)c1oc(=O)cc2c1[C@@H](O)[C@H]1OC(=O)[C@@]3(C)[C@@H](O)[C@H]4O[C@H]4[C@@]2(C)[C@@H]13 [NAGILACTONE C],inactive
2,CC(C)[C@H]1OC(=O)C=C2C13O[C@@H]3[C@H]1OC(=O)[C@@]3(C)[C@@H](O)CC[C@@]2(C)[C@@H]13 (some centres not stated) [NAGILACTONE E],inactive
3,CC(C)[C@H]1OC(=O)C=C2C1=C[C@H]1OC(=O)[C@@]3(C)C[C@H](O)C[C@@]2(C)[C@@H]13,inactive

# System: Cutibacterium acnes
# Experiment: Antimicrobial activity against Propionibacterium acnes ATCC 11827 up to 800 ug/mL after 2 days by broth dilution method
# Assay type: functional, organism-based
# Conditions: not given
row,SMILES,Activity
1,CC(C)c1oc(=O)cc2c1[C@@H](O)[C@H]1OC(=O)[C@@]3(C)[C@@H](O)[C@H]4O[C@H]4[C@@]2(C)[C@@H]13 [NAGILACTONE C],inactive
2,CC(C)[C@H]1OC(=O)C=C2C13O[C@@H]3[C@H]1OC(=O)[C@@]3(C)[C@@H](O)CC[C@@]2(C)[C@@H]13 (some centres not stated) [NAGILACTONE E],inactive
3,CC(C)[C@H]1OC(=O)C=C2C1=C[C@H]1OC(=O)[C@@]3(C)C[C@H](O)C[C@@]2(C)[C@@H]13,inactive

# System: Escherichia coli
# Experiment: Antimicrobial activity against Escherichia coli ATCC 9637 up to 800 ug/mL after 2 days by broth dilution method
# Assay type: functional, organism-based
# Conditions: not given
row,SMILES,Activity
1,CC(C)c1oc(=O)cc2c1[C@@H](O)[C@H]1OC(=O)[C@@]3(C)[C@@H](O)[C@H]4O[C@H]4[C@@]2(C)[C@@H]13 [NAGILACTONE C],inactive
2,CC(C)[C@H]1OC(=O)C=C2C13O[C@@H]3[C@H]1OC(=O)[C@@]3(C)[C@@H](O)CC[C@@]2(C)[C@@H]13 (some centres not stated) [NAGILACTONE E],inactive
3,CC(C)[C@H]1OC(=O)C=C2C1=C[C@H]1OC(=O)[C@@]3(C)C[C@H](O)C[C@@]2(C)[C@@H]13,inactive

# System: Pseudomonas aeruginosa
# Experiment: Antimicrobial activity against Pseudomonas aeruginosa ATCC 10145 up to 800 ug/mL after 2 days by broth dilution method
# Assay type: functional, organism-based
# Conditions: not given
row,SMILES,Activity
1,CC(C)c1oc(=O)cc2c1[C@@H](O)[C@H]1OC(=O)[C@@]3(C)[C@@H](O)[C@H]4O[C@H]4[C@@]2(C)[C@@H]13 [NAGILACTONE C],inactive
2,CC(C)[C@H]1OC(=O)C=C2C13O[C@@H]3[C@H]1OC(=O)[C@@]3(C)[C@@H](O)CC[C@@]2(C)[C@@H]13 (some centres not stated) [NAGILACTONE E],inactive
3,CC(C)[C@H]1OC(=O)C=C2C1=C[C@H]1OC(=O)[C@@]3(C)C[C@H](O)C[C@@]2(C)[C@@H]13,inactive

# System: Klebsiella aerogenes
# Experiment: Antimicrobial activity against Enterobacter aerogenes ATCC 13048 up to 800 ug/mL after 2 days by broth dilution method
# Assay type: functional, organism-based
# Conditions: not given
row,SMILES,Activity
1,CC(C)c1oc(=O)cc2c1[C@@H](O)[C@H]1OC(=O)[C@@]3(C)[C@@H](O)[C@H]4O[C@H]4[C@@]2(C)[C@@H]13 [NAGILACTONE C],inactive
2,CC(C)[C@H]1OC(=O)C=C2C13O[C@@H]3[C@H]1OC(=O)[C@@]3(C)[C@@H](O)CC[C@@]2(C)[C@@H]13 (some centres not stated) [NAGILACTONE E],inactive
3,CC(C)[C@H]1OC(=O)C=C2C1=C[C@H]1OC(=O)[C@@]3(C)C[C@H](O)C[C@@]2(C)[C@@H]13,inactive

# System: Penicillium chrysogenum
# Experiment: Antimicrobial activity against Penicillium chrysogenum ATCC 10106 up to 800 ug/mL after 5 days by broth dilution method
# Assay type: functional, organism-based
# Conditions: not given
row,SMILES,Activity
1,CC(C)c1oc(=O)cc2c1[C@@H](O)[C@H]1OC(=O)[C@@]3(C)[C@@H](O)[C@H]4O[C@H]4[C@@]2(C)[C@@H]13 [NAGILACTONE C],inactive
2,CC(C)[C@H]1OC(=O)C=C2C13O[C@@H]3[C@H]1OC(=O)[C@@]3(C)[C@@H](O)CC[C@@]2(C)[C@@H]13 (some centres not stated) [NAGILACTONE E],inactive
3,CC(C)[C@H]1OC(=O)C=C2C1=C[C@H]1OC(=O)[C@@]3(C)C[C@H](O)C[C@@]2(C)[C@@H]13,inactive

# System: Saccharomyces cerevisiae
# Experiment: Antifungal activity against Saccharomyces cerevisiae ATCC 7754 at 1600 ug/mL after 2 days by broth dilution method
# Assay type: functional, organism-based
# Conditions: not given
row,SMILES,Activity
1,CC(C)c1oc(=O)cc2c1[C@@H](O)[C@H]1OC(=O)[C@@]3(C)[C@@H](O)[C@H]4O[C@H]4[C@@]2(C)[C@@H]13 [NAGILACTONE C],inactive
